Experimental data from patent publication US12427146B2, “C-terminal SRC kinase inhibitors” (INVENTISBIO CO., LTD., priority 2018, dated 2025).

Tests used:
LCK protein = LCK protein (Homo sapiens (Human), UniProt P06239); assay: LCK Inhibition Assay; type: biochemical
Outline: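 Recombinant LCK (0.50 nM) preincubated 30 min at RT with compound and FLPeptide4 (2 μM) in 50 mM HEPES pH 7.5, 10 mM MgCl2, Brij-35, DTT, BSA; reaction started with ATP (400 μM solution added), run 90 min at 25 °C, EDTA-stopped. Phospho/non-phospho peptide separated by mobility shift; IC50 from % inhibition of conversion, 11-point 1:3 series.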

CSK protein = CSK protein (Homo sapiens (Human), UniProt P41240); assay: CSK Inhibition Assay; type: biochemical
Outline: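 Compounds, 11-point 1:3 dilutions in DMSO, were preincubated 30 min at RT with CSK and fluorescent peptide substrate, then the reaction was started with ATP (4 μM solution) and run 90 min at 25 °C before EDTA stop. Phospho-peptide conversion was read by mobility-shift separation (Caliper EZ Reader II) and converted to % inhibition for IC50.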

Sequence of LCK protein (P06239 whole entry): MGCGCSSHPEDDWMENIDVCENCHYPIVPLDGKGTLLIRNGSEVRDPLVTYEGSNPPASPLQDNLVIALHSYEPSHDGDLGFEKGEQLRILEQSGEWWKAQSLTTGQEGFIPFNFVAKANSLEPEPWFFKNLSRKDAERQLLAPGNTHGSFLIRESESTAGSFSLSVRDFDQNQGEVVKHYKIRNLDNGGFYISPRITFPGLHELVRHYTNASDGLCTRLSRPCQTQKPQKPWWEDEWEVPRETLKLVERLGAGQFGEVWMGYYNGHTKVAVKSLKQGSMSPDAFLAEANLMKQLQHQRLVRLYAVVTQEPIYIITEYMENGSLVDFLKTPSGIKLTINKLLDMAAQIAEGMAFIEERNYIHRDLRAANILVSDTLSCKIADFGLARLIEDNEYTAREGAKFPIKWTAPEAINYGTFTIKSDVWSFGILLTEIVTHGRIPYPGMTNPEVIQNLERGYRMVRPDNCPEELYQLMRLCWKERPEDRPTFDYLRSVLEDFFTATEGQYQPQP

Compound | IC50 (LCK protein) [µM] | IC50 (CSK protein) [µM]
Nc1nccc(-c2sc(-c3ccccc3)nc2-c2cccc(NS(=O)(=O)c3c(F)cccc3F)c2F)n1 [compound 2] | > 1 | 0.0433
O=S(=O)(Nc1cccc(-c2nc(-c3ccccc3)sc2-c2ccnc(Nc3ccc(N4CCOCC4)nc3)n2)c1F)c1c(F)cccc1F [compound 3] | < 0.1 | 0.0134
Nc1ncc(-c2nc(-c3cccc(NS(=O)(=O)c4c(F)cccc4F)c3F)c(-c3ccnc(N)n3)s2)cn1 [compound 6] | 0.1 to 1 | 0.0198
CCOc1ncc(-c2nc(-c3cccc(NS(=O)(=O)c4c(F)cccc4F)c3F)c(-c3ccnc(N)n3)s2)cn1 [compound 7] | > 1 | 0.305
Nc1nccc(-c2sc(-c3ccccc3)nc2-c2cncc(NS(=O)(=O)c3c(F)cccc3F)c2)n1 [compound 25] | > 1 | 0.237
COc1ccc(-c2nc(-c3cccc(NS(=O)(=O)c4c(F)cccc4F)c3F)c(-c3ccnc(N)n3)s2)cn1 [compound 27] | 0.1 to 1 | 0.0269
Nc1nccc(-c2sc(-c3ccc(=O)[nH]c3)nc2-c2cccc(NS(=O)(=O)c3c(F)cccc3F)c2F)n1 [compound 28] | > 1 | 0.0633
CNc1nccc(-c2sc(-c3ccc(F)cn3)nc2-c2cccc(NS(=O)(=O)c3c(F)cccc3F)c2F)n1 [compound 34] | > 1 | 0.0429
Cc1ccc(F)c(S(=O)(=O)Nc2cccc(-c3nc(-c4ccccc4)sc3-c3ccnc(N)n3)c2F)c1F [compound 36] | > 1 | 0.0223

Next, values leading:

IC50 (LCK protein) [µM] | IC50 (CSK protein) [µM] | Compound
0.1 to 1 | 0.0149 | O=S(=O)(Nc1cccc(-c2nc(-c3ccccc3)sc2-c2ccnc(Nc3cncnc3)n2)c1F)c1c(F)cccc1F [compound 38]
> 1 | 0.0339 | Nc1nccc(-c2sc(-c3cnccn3)nc2-c2cccc(NS(=O)(=O)c3c(F)cccc3F)c2F)n1 [compound 39]
> 1 | 0.0413 | CNC(=O)N[C@@H](C)CNc1nccc(-c2sc(-c3ccccc3)nc2-c2cccc(NS(=O)(=O)c3c(F)cccc3F)c2F)n1 [compound 45]
> 1 | 0.0758 | Nc1nccc(-c2sc(-c3cncc(C4CC4)c3)nc2-c2cccc(NS(=O)(=O)c3c(F)cccc3F)c2F)n1 [compound 48]
> 1 | 0.0763 | COc1ccc(F)c(S(=O)(=O)Nc2cccc(-c3nc(-c4cncc(F)c4)sc3-c3ccnc(N)n3)c2F)c1F [compound 50]
> 1 | 0.077 | Nc1nccc(-c2c(-c3cccc(NS(=O)(=O)c4c(F)cccc4F)c3F)nc3ccccn23)n1 [compound 90]
> 1 | 0.0527 | COc1ccn2c(-c3ccnc(N)n3)c(-c3cccc(NS(=O)(=O)c4c(F)cccc4F)c3F)nc2c1 [compound 91]
< 0.1 | 0.0025 | CN1CCN(c2ccc(Nc3nccc(-c4cn(C5CCCCC5)nc4-c4cccc(NS(=O)(=O)c5c(F)cccc5F)c4F)n3)cn2)CC1 [compound 108]
> 1 | 0.0303 | Nc1nccc(-c2sc(N3CCCC3=O)nc2-c2cccc(NS(=O)(=O)c3c(F)cccc3F)c2F)n1 [compound 112]
< 0.1 | 0.0028 | CC(C)(C)c1nc(-c2cccc(NS(=O)(=O)c3c(F)cccc3F)c2F)c(-c2ccnc(Nc3ccc(N4CCOCC4)nc3)n2)s1 [compound 118]
0.1 to 1 | 0.0074 | CCN(CC)c1nc(-c2cccc(NS(=O)(=O)c3c(F)cccc3F)c2F)c(-c2ccnc(NC)n2)s1 [compound 153]
0.1 to 1 | 0.0125 | CNc1nccc(-c2sc(-c3cncc(F)c3)nc2-c2cc(C)cc(NS(=O)(=O)c3c(F)cccc3F)c2F)n1 [compound 154]
